Laboratory results reported in patent US7396837B2, “Antitumoral analogs of lamellarins” (Pharma Mar, S.A.U., priority 2002, dated 2008).
Read-outs that look alike come from different tables or passages of the source.

Key:
LNCaP = assay: SRB colorimetric cell growth inhibition assay, LNCaP; type: cell-based; conditions: Homo sapiens, LNCaP, LN-caP; for GI50: GI=growth inhibition, read-out: GI50 LN-caP; for CC50: cell killing (cytotoxic effect), read-out: LC50 LN-caP; for IC (TGI): total growth inhibition (cytostatic effect), read-out: TGI LN-caP
Outline: (§1)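 Sulforhodamine B colorimetric readout measured cell growth and viability after continuous compound exposure of human cancer cell lines in 96-well plates. Triplicate wells gave mean ± SD, from which growth inhibition (GI), cytostatic total growth inhibition (TGI) and cytotoxic cell killing (LC) were calculated.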

K-562 = assay: SRB colorimetric cell growth inhibition assay, K-562; type: cell-based; conditions: Homo sapiens, K562, K-562; for GI50: GI=growth inhibition, read-out: GI50 K-562; for CC50: cell killing (cytotoxic effect), read-out: LC50 K-562; for IC (TGI): total growth inhibition (cytostatic effect), read-out: TGI K-562
Outline: as §1

IGROV = assay: SRB colorimetric cell growth inhibition assay, IGROV; type: cell-based
Outline: as §1

DU-145 = assay: SRB colorimetric cell growth inhibition assay, DU-145; type: cell-based; conditions: Homo sapiens; for CC50: cell killing (cytotoxic effect), read-out: LC50 DU-145; for GI50: GI=growth inhibition, read-out: GI50 DU-145; for IC (TGI): total growth inhibition (cytostatic effect), read-out: TGI DU-145
Outline: as §1

SK-MEL-28 = assay: SRB colorimetric cell growth inhibition assay, SK-MEL-28; type: cell-based; conditions: Homo sapiens, SK-MEL-28, MEL-28; for GI50: GI=growth inhibition, read-out: GI50 MEL-28; for CC50: cell killing (cytotoxic effect), read-out: LC50 MEL-28; for IC (TGI): total growth inhibition (cytostatic effect), read-out: TGI MEL-28
Outline: as §1

PANC-1 = assay: SRB colorimetric cell growth inhibition assay, PANC-1; type: cell-based; conditions: Homo sapiens; for CC50: cell killing (cytotoxic effect), read-out: LC50 PANC-1; for IC (TGI): total growth inhibition (cytostatic effect), read-out: TGI PANC-1; for GI50: GI=growth inhibition, read-out: GI50 PANC-1
Outline: as §1

SK-BR-3 = assay: SRB colorimetric cell growth inhibition assay, SK-BR-3; type: cell-based; conditions: Homo sapiens; for CC50: cell killing (cytotoxic effect), read-out: LC50 SK-BR-3; for GI50: GI=growth inhibition, read-out: GI50 SK-BR-3; for IC (TGI): total growth inhibition (cytostatic effect), read-out: TGI SK-BR-3
Outline: as §1

A-549 = assay: SRB colorimetric cell growth inhibition assay, A-549; type: cell-based; conditions: Homo sapiens, A549, A-549; for GI50: GI=growth inhibition, read-out: GI50 A-549; for CC50: cell killing (cytotoxic effect), read-out: LC50 A-549; for IC (TGI): total growth inhibition (cytostatic effect), read-out: TGI A-549
Outline: as §1

HT-29 = assay: SRB colorimetric cell growth inhibition assay, HT-29; type: cell-based; conditions: Homo sapiens; for CC50: cell killing (cytotoxic effect), read-out: LC50 HT-29; for GI50: GI=growth inhibition, read-out: GI50 HT-29; for IC (TGI): total growth inhibition (cytostatic effect), read-out: TGI HT-29
Outline: as §1

LoVo = assay: SRB colorimetric cell growth inhibition assay, LoVo; type: cell-based; conditions: Homo sapiens; for CC50: cell killing (cytotoxic effect), read-out: LC50 LOVO; for GI50: GI=growth inhibition, read-out: GI50 LOVO; for IC (TGI): total growth inhibition (cytostatic effect), read-out: TGI LOVO
Outline: as §1

LoVo-Dox = assay: SRB colorimetric cell growth inhibition assay, LoVo-Dox (MDR); type: cell-based; conditions: Homo sapiens, LOVO-DOX; for GI50: GI=growth inhibition, read-out: GI50 LOVO-DOX; for CC50: cell killing (cytotoxic effect), read-out: LC50 LOVO-DOX; for IC (TGI): total growth inhibition (cytostatic effect), read-out: TGI LOVO-DOX
Outline: as §1

IGROV-ET = assay: SRB colorimetric cell growth inhibition assay, IGROV-ET (ET-743 resistant); type: cell-based; conditions: Homo sapiens, IGROV-ET; for GI50: GI=growth inhibition, read-out: GI50 IGROV-ET; for CC50: cell killing (cytotoxic effect), read-out: LC50 IGROV-ET; for IC (TGI): total growth inhibition (cytostatic effect), read-out: TGI IGROV-ET
Outline: as §1

human topoisomerase I = molecular target: T1, human topoisomerase I (Homo sapiens, UniProt P11387); assay: Topoisomerase I DNA relaxation assay (supercoiled plasmid DNA); type: biochemical; conditions: supercoiled plasmid DNA, each compound tested at 1 μM, agarose gel with ethidium bromide
T1 sequence (P11387 1-765): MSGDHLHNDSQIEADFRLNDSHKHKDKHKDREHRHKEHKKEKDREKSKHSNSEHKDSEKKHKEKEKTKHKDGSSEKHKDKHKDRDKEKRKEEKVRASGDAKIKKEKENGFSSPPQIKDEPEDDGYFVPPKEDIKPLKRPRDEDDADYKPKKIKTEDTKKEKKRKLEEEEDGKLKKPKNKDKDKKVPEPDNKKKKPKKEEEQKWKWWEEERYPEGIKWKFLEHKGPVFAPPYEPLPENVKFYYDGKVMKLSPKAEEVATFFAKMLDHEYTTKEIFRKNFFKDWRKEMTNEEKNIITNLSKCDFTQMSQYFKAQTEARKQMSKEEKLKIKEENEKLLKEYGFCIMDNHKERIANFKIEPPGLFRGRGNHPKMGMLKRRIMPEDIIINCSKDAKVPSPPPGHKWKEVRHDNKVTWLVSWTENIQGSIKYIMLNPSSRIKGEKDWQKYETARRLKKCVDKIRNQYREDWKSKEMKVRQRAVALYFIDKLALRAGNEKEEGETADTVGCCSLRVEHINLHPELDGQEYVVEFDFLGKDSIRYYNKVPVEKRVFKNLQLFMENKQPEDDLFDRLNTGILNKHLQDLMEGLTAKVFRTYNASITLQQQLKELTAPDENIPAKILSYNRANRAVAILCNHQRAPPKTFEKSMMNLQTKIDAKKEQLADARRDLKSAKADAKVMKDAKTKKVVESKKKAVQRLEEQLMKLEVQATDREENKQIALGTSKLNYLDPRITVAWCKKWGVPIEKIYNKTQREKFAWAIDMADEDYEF
Outline: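 Test compounds (1 μM each) were present during topoisomerase I relaxation of supercoiled plasmid DNA. Relaxation was assessed on ethidium bromide-stained agarose gels.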

[1] = Homo sapiens, IGROV; cell killing (cytotoxic effect); read-out: LC50 IGROV
[2] = Homo sapiens, IGROV; GI=growth inhibition; read-out: GI50 IGROV
[3] = Homo sapiens, IGROV; total growth inhibition (cytostatic effect); read-out: TGI IGROV

SMILES	GI50 (LNCaP)	CC50 (IGROV; [1])	CC50 (DU-145; DU-145, DU-145)	GI50 (SK-MEL-28)	CC50 (SK-MEL-28)	IC (TGI) (SK-MEL-28)	CC50 (PANC-1; PANC-1, PANC-1)	IC (TGI) (PANC-1; PANC-1, PANC-1)	CC50 (SK-BR-3; SK-BR-3, SK-BR-3)	GI50 (A-549)	CC50 (A-549)	IC (TGI) (A-549)	CC50 (HT-29; HT-29, HT-29)	CC50 (LoVo; LoVo)	GI50 (LoVo-Dox)	CC50 (LoVo-Dox)	IC (TGI) (LoVo-Dox)	GI50 (IGROV-ET)	CC50 (IGROV-ET)	IC (TGI) (IGROV-ET)	further results
COc1cc(-c2c3n(c4c(=O)oc5cc(OC(=O)[C@H](C)NC(=O)[C@H](C)NC(=O)OC(C)(C)C)c(OC)cc5c24)CCc2cc(OC(=O)[C@H](C)NC(=O)[C@H](C)NC(=O)OC(C)(C)C)c(OC)cc2-3)ccc1OC(=O)[C@H](C)NC(=O)[C@H](C)NC(=O)OC(C)(C)C [Compound 7]	425 nM	5790 nM	5410 nM	652 nM	3750 nM	1640 nM	8040 nM	3310 nM	5980 nM	969 nM	8140 nM	2960 nM	8140 nM	8140 nM	3660 nM	8140 nM	8140 nM	1860 nM	8140 nM	4580 nM	CC50 (LNCaP): 3610 nM; IC (TGI) (LNCaP): 1360 nM; GI50 (K-562): 596 nM; CC50 (K-562): 8140 nM; IC (TGI) (K-562): 2680 nM; GI50 (IGROV; Homo sapiens; IGROV; GI=growth inhibition; read-out: GI50 IGROV): 1230 nM; IC (TGI) (IGROV; Homo sapiens; IGROV; total growth inhibition (cytostatic effect); read-out: TGI IGROV): 2670 nM; GI50 (DU-145; DU-145): 993 nM; IC (TGI) (DU-145; DU-145): 2310 nM; GI50 (PANC-1; PANC-1): 1360 nM; GI50 (SK-BR-3; SK-BR-3): 1140 nM; IC (TGI) (SK-BR-3; SK-BR-3): 2610 nM; GI50 (HT-29; HT-29): 871 nM; IC (TGI) (HT-29; HT-29): 3310 nM; GI50 (LoVo; LOVO): 2000 nM; IC (TGI) (LoVo; LOVO): 5050 nM
COc1cc(-c2c3n(c4c(=O)oc5cc(OC(=O)CCc6ccccc6)c(OC)cc5c24)CCc2cc(OC(=O)CCc4ccccc4)c(OC)cc2-3)ccc1OC(=O)CCc1ccccc1 [Compound 11]		5880 nM	2780 nM	200 nM	6180 nM	1180 nM	11100 nM	1760 nM	6660 nM	128 nM	11100 nM	1540 nM	8230 nM	10400 nM	11100 nM	11100 nM	11100 nM	5530 nM	11100 nM	11100 nM	stimulation of DNA cleavage by topoisomerase I / inhibition of topoisomerase I (nicked DNA band) in DNA relaxation assay (human topoisomerase I): inactive; GI50 (IGROV; [2]): 267 nM; IC (TGI) (IGROV; [3]): 1140 nM; GI50 (DU-145; DU-145, DU-145): 35.3 nM; IC (TGI) (DU-145; DU-145, DU-145): 151 nM; GI50 (PANC-1; PANC-1, PANC-1): 214 nM; GI50 (SK-BR-3; SK-BR-3, SK-BR-3): 187 nM; IC (TGI) (SK-BR-3; SK-BR-3, SK-BR-3): 1200 nM; GI50 (HT-29; HT-29, HT-29): 38.4 nM; IC (TGI) (HT-29; HT-29, HT-29): 175 nM; GI50 (LoVo; LoVo): 42.4 nM; IC (TGI) (LoVo; LoVo): 1160 nM
COc1cc(-c2c3c4cc(OC)c(OC(=O)[C@H](N)C(C)C)cc4oc(=O)c3n3ccc4cc(OC(=O)[C@H](N)C(C)C)c(OC)cc4c23)ccc1OC(=O)[C@H](N)C(C)C [Compound 17]	132 nM	4930 nM	2300 nM	51.8 nM	766 nM	171 nM	8530 nM	1520 nM	1220 nM	207 nM	8480 nM	663 nM	8780 nM	816 nM	384 nM	5290 nM	1330 nM	162 nM	8780 nM	544 nM	CC50 (LNCaP): 599 nM; IC (TGI) (LNCaP): 281 nM; stimulation of DNA cleavage by topoisomerase I / inhibition of topoisomerase I (nicked DNA band) in DNA relaxation assay (human topoisomerase I): stimulated DNA cleavage by the enzyme; GI50 (K-562): 53.6 nM; CC50 (K-562): 2500 nM; IC (TGI) (K-562): 277 nM; GI50 (IGROV; [2]): 105 nM; IC (TGI) (IGROV; [3]): 405 nM; GI50 (DU-145; DU-145, DU-145): 48.7 nM; IC (TGI) (DU-145; DU-145, DU-145): 228 nM; GI50 (PANC-1; PANC-1, PANC-1): 206 nM; GI50 (SK-BR-3; SK-BR-3, SK-BR-3): 80.3 nM; IC (TGI) (SK-BR-3; SK-BR-3, SK-BR-3): 286 nM; GI50 (HT-29; HT-29, HT-29): 342 nM; IC (TGI) (HT-29; HT-29, HT-29): 686 nM; GI50 (LoVo; LoVo): 216 nM; IC (TGI) (LoVo; LoVo): 420 nM
